Assay results reported in patent US9902696B2, “1,4-substituted piperidine derivatives” (Cephalon, Inc., priority 2015, dated 2018).
pIC50: −log10 of the molar value. Read-outs that look alike come from different tables or passages of the source.

Columns and labels:
[1] = target: T1, recombinant human baculovirus-expressed GST-tagged FASN (Homo sapiens, UniProt P49327); experiment: FASN enzyme activity assay, fluorescence-based detection of CoA with CPM; type: biochemical; details: 5 nM FASN, 150 μM NADPH, 10 μM acetyl-CoA, 25 μM malonyl-CoA, 90 minutes incubation
T1 construct: GST
T1 sequence (P49327 whole entry): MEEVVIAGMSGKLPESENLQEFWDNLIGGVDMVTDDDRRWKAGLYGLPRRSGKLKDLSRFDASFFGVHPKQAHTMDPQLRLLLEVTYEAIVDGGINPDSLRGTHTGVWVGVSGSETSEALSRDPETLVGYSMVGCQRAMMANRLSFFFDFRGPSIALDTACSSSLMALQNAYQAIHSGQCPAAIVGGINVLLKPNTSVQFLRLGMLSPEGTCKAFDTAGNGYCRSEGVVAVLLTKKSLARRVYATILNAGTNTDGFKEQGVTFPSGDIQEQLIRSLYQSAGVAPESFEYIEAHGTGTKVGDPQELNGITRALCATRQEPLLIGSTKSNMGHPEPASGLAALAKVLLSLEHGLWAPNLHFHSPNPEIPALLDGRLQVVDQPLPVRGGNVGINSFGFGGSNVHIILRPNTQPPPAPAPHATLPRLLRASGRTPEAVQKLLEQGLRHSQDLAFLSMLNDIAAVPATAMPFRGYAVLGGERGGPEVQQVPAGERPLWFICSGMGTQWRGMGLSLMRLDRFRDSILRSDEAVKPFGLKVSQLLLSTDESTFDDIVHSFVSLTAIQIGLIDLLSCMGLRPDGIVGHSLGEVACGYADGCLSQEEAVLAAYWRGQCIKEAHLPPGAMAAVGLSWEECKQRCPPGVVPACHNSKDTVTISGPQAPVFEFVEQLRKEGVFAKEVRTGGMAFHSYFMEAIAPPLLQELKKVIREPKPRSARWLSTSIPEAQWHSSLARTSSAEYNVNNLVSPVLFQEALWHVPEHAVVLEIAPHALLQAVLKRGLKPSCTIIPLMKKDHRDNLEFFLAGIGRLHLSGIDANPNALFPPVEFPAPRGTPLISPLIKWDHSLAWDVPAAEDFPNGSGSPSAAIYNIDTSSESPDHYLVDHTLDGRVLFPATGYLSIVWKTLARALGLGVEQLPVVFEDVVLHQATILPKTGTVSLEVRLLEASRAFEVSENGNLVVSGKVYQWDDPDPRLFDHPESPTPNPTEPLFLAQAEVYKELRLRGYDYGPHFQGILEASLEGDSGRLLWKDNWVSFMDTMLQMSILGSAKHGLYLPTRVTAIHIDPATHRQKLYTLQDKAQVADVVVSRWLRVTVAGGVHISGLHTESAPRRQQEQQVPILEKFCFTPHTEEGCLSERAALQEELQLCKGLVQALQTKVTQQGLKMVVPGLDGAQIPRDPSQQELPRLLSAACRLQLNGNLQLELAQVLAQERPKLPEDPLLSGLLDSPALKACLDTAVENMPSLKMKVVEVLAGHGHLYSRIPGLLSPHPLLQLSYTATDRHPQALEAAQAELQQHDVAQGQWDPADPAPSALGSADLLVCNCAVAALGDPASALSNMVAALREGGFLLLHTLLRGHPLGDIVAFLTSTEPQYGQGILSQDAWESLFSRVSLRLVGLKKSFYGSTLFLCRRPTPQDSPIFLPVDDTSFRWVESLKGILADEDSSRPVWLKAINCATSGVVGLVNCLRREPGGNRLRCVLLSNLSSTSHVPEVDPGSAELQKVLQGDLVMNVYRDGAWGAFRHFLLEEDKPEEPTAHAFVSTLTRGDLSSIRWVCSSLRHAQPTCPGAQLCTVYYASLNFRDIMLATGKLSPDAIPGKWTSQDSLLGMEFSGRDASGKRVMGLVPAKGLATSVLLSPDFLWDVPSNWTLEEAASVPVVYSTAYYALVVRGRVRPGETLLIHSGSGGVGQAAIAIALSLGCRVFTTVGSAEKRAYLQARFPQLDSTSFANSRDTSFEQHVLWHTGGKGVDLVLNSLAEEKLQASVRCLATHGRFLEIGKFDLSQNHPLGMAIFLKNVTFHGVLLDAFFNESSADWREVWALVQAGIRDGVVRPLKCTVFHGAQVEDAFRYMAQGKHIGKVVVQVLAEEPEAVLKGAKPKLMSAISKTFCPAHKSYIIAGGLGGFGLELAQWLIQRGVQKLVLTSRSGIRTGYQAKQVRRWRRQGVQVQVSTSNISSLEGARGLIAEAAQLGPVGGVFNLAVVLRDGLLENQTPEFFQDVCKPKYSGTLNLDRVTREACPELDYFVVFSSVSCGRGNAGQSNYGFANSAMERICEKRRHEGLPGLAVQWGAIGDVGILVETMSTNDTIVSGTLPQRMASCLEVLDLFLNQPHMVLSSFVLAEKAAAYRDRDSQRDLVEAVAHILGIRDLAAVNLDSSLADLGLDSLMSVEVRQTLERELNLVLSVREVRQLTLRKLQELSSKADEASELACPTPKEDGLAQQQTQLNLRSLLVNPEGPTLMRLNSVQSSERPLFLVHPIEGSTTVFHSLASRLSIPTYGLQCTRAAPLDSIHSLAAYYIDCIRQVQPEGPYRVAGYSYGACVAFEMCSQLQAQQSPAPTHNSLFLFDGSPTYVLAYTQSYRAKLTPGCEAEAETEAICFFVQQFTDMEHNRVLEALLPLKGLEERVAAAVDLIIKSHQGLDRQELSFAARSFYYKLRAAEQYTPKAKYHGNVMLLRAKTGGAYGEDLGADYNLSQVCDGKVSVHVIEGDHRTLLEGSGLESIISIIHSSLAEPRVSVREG
How it was run: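 CoA product reacted with thiol-reactive CPM (diluted to 50 μM in 70% ethanol), read at 390/530 nm after 30 min. Preceding reaction: 90 min, 5 nM recombinant GST-FASN, 150 μM NADPH, 10 μM acetyl-CoA, 25 μM malonyl-CoA, pH 7.5 HEPES, 0.5% DMSO. IC50s fitted by nonlinear sigmoidal regression.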

[2] = read-out: IC50 data for Additional Compounds of Formulae I-V(a): Activity
[3] = read-out: IC50 data for Compounds of Formulae I-V/V(a): Activity

Compound	pIC50 [1, 2]	melting point	pIC50 [1, 3]
CC(C)NC(=O)N1CCC(Oc2ccc(-c3ccc4nccn4c3Cl)cc2)CC1 [Example 570, 4-[4-(5-Chloroimidazo[1,2-a]pyridin-6-yl)phenoxy]-N-isopropyl-piperidine-1-carboxamide]	7.00 to 9.00	220 °C	–
CCNC(=O)N1CCC(Oc2ccc(-c3ccc4c(C)nccc4c3)cc2)CC1 [Example 578, N-Ethyl-4-[4-(1-methyl-6-isoquinolyl)phenoxy]piperidine-1-carboxamide]	5.00 to 6.00	211 °C	–
CC(C)C(=O)N1CC(Oc2ccc(-c3cnc4ccccc4c3)cc2)C1 [Example 339, 2-Methyl-1-(3-(4-(quinolin-3-yl)phenoxy)azetidin-1-yl)propan-1-one]	–	162 °C	5.00 to 6.00
CC(C)CNC(=O)N1CCC(Oc2ccc(-c3ccc4nccn4c3Cl)cc2)CC1 [Example 565, 4-[4-(5-Chloroimidazo[1,2-a]pyridin-6-yl)phenoxy]-N-isobutyl-piperidine-1-carboxamide]	6.00 to 7.00	201 °C	–
CCCNC(=O)N1CCC(Oc2ccc(-c3ccc4c(C)nccc4c3)cc2)CC1 [Example 579, 4-[4-(1-Methyl-6-isoquinolyl)phenoxy]-N-propyl-piperidine-1-carboxamide]	6.00 to 7.00	181 °C	–
Cc1nccc2cc(-c3ccc(OC4CCN(C(N)=O)CC4)cc3)ccc12 [Example 581, 4-[4-(1-Methyl-6-isoquinolyl)phenoxy]piperidine-1-carboxamide]	7.00 to 9.00	232 °C	–
Cc1nccc2cc(-c3ccc(OC4CCN(C(=O)NCC(C)C)CC4)cc3)ccc12 [Example 580, N-Isobutyl-4-[4-(1-methyl-6-isoquinolyl)phenoxy]piperidine-1-carboxamide]	7.00 to 9.00	157 °C	–
CCCCNC(=O)N1CCC(Oc2ccc(-c3ccc4nccn4c3Cl)cc2)CC1 [Example 563, N-Butyl-4-[4-(5-chloroimidazo[1,2-a]pyridin-6-yl)phenoxy]piperidine-1-carboxamide]	7.00 to 9.00	171 to 177 °C	–
O=C(C1CC1)N1CC(Oc2ccc(-c3cnc4ccccc4c3)cc2)C1 [Example 340, Cyclopropyl(3-(4-(quinolin-3-yl)phenoxy)azetidin-1-yl)methanone]	–	187 °C	5.00 to 6.00
Cc1nccc2cc(-c3ccc(OC4CCN(C(=O)NOC(C)C)CC4)cc3)ccc12 [Example 583, N-Isopropoxy-4-[4-(1-methyl-6-isoquinolyl)phenoxy]piperidine-1-carboxamide]	7.00 to 9.00	189 °C	–
CCCNC(=O)N1CCC(Oc2ccc(-c3ccc4nccn4c3Cl)cc2)CC1 [Example 566, 4-[4-(5-Chloroimidazo[1,2-a]pyridin-6-yl)phenoxy]-N-propyl-piperidine-1-carboxamide]	7.00 to 9.00	184 °C	–
CC(C)CCNC(=O)N1CCC(Oc2ccc(-c3ccc4nccn4c3Cl)cc2)CC1 [Example 572, 4-[4-(5-Chloroimidazo[1,2-a]pyridin-6-yl)phenoxy]-N-isopentyl-piperidine-1-carboxamide]	5.00 to 6.00	185 °C	–
CC(C)CC(=O)N1CC(Oc2ccc(-c3cnc4ccccc4c3)cc2)C1 [Example 341, 3-Methyl-1-(3-(4-(quinolin-3-yl)phenoxy)azetidin-1-yl)butan-1-one]	–	201 °C	5.00 to 6.00
CCC(=O)N1CCC(Oc2ncc(-c3cnc4ccccc4c3)cn2)CC1 [Example 143, 1-[4-(5-Quinolin-3-yl-pyrimidin-2-yloxy)-piperidin-1-yl]-propan-1-one]	–	162 to 166 °C	5.00 to 6.00
Cc1nccc2cc(-c3ccc(OC4CCN(C(=O)NCC5CC5)CC4)cc3)ccc12 [Example 582, N-(Cyclopropylmethyl)-4-[4-(1-methyl-6-isoquinolyl)phenoxy]piperidine-1-carboxamide]	5.00 to 6.00	188 °C	–
CCCONC(=O)N1CCC(Oc2ccc(-c3ccc4cccnc4c3C)cc2)CC1 [Example 574, 4-[4-(8-Methyl-7-quinolyl)phenoxy]-N-propoxy-piperidine-1-carboxamide]	7.00 to 9.00	75 °C	–
CC(C)ONC(=O)N1CCC(Oc2ccc(-c3ccc4nccn4c3Cl)cc2)CC1 [Example 569, 4-[4-(5-Chloroimidazo[1,2-a]pyridin-6-yl)phenoxy]-N-isopropoxy-piperidine-1-carboxamide]	6.00 to 7.00	175 °C	–
CCC(=O)N1CC(Oc2ccc(-c3cnc4ccccc4c3)cc2)C1 [Example 338, 1-(3-(4-(Quinolin-3-yl)phenoxy)azetidin-1-yl)propan-1-one]	–	172 °C	6.00 to 7.00
